system: E-cadherin expression in SW620 cells; experiment: In-cell Western (ICW) cell-based functional assay of E-cadherin expression in SW620 cells; conditions: Homo sapiens, SW-620; change in expression level of E-cadherin in response to 10 μM compound, SW620 cells, 24 hours
Experimental: SW620 and H520 cells (5×10^4/100 μL) were seeded in a 96-well plate prior to treatment. Cells were treated with 10 μM concentration of synthesized compound in quadruplicate for 24 hours in RPMI 1640 supplemented medium and 100 μg/mL penicillin-streptomycin. The cells were then fixed with 100% methanol for 20 minutes at 4° C. The wells were then washed 2 times with PBS, permeabilized in 2% bovine serum albumin (BSA) and 0.2% TritonX-100 in PBS for 30 minutes at room temperature with gentle agitation, and blocked in LI-COR blocking buffer for 30 minutes at room temperature with gentle agitation. The cells were then incubated with the following primary antibodies: anti-E-Cadherin (1:500) and anti-α-Tubulin (1:1000) diluted in blocking buffer (1:1 dilution in PBS) for 2 hours at room temperature with gentle agitation. The cells were washed 4 times in PBS-T for 5 minutes each, and then incubated with the following secondary antibodies conjugated to a fluorescent entity: IRDye 800-conjugated goat anti-rabbit IgG (1:1000) and IRDye-700-conjugated goat anti-mouse IgG (1:2000) in blocking buffer (1:1 dilution in PBS) with gentle agitation for 1 h at room temperature. The cells were washed 4 times in PBS-T for 5 minutes each followed by a single wash with PBS. All liquid was removed from the wells and the plates were visualized and analyzed on the Odyssey IR imaging system (LI-COR Biosciences).
The assay was further optimized in the following manner. The cells were washed 2 times with PBS, fixed in 100% methanol at room temperature for 15 minutes, and again washed 2 times with PBS. The cells were then incubated with the following primary antibodies: anti-E-Cadherin (1:200) and anti-α-Tubulin (1:2000) diluted in ice cold 2% bovine serum albumin (BSA) and 0.2% TritonX-100 in PBS for 1 hour at room temperature with gentle agitation. The cells were washed 2 times in PBS and then incubated with the following secondary antibodies conjugated to a fluorescent entity: Licor 800-conjugated goat anti-rabbit IgG (1:2000) and IRDye-700-conjugated goat anti-mouse IgG (1:2000) in ice cold 2% BSA and 0.2% TritonX-100 in PBS with gentle agitation for 45 minutes at room temperature. The wells were washed 2 times in PBS, dried, and analyzed as previously mentioned.
N-(3-(Arylamino)alkyl)-5-arylisoxazole-3-carboxamide analogs were synthesized as described above. Changes in expression level of E-cadherin in response to 10 μM compound in SW620 cells was determined in the cell-based functional assay as described above, and the data are shown in Table II. The compound number corresponds to the compound numbers used in Table I.
EC50 of inducement of E-cadherin expression in SW620 cells was determined in the cell-based functional assay as described above, and the data are shown in Table III. The compound number corresponds to the compound numbers used in Table I.

| SMILES | fold induction at 10 µM |
| --- | --- |
| [N-]=[N+]=Nc1ccnc(NCCCNC(=O)c2cc(-c3ccccc3)[nH]n2)n1 [Compound 39, N-(3-((4-azidopyrimidin-2-yl)amino)propyl)-5-phenyl-1H-pyrazole-3-carboxamide] | 15.9 |
| O=C(NCCCNCc1ccccc1O)c1cc(-c2ccccc2)[nH]n1 [Compound 21, N-(3-((2-hydroxybenzyl)amino)propyl)-5-phenyl-1H-pyrazole-3-carboxamide] | 1.14 |
| O=C(NCCCN(Cc1ccccn1)Cc1ccccn1)c1cc(-c2ccccc2)on1 [Compound 6, N-(3-(bis(pyridin-2-ylmethyl)amino)propyl)-5-phenylisoxazole-3-carboxamide] | 0.82 |
| [N-]=[N+]=Nc1nccc(NCCCNC(=O)c2cc(-c3ccccc3)[nH]n2)n1 [Compound 37, N-(3-((2-azidopyrimidin-4-yl)amino)propyl)-5-phenyl-1H-pyrazole-3-carboxamide] | 6.09 |
| COc1cncc(CN(CCCNC(=O)c2cc(-c3ccccc3)[nH]n2)Cc2cncc(OC)c2)c1 [Compound 29, N-(3-(bis((5-methoxypyridin-3-yl)methyl)amino)propyl)-5-phenyl-1H-pyrazole-3-carboxamide] | 2.09 |
| O=C(NCCCNCc1c[nH]c2ncccc12)c1cc(-c2ccccc2)on1 [Compound 10, N-(3-(((1H-pyrrolo[2,3-b]pyridin-3-yl)methyl)amino)propyl)-5-phenylisoxazole-3-carboxamide] | 0.91 |
| O=C(NCCCNCc1c[nH]c2ccccc12)c1cc(-c2ccccc2)[nH]n1 [Compound 26, N-(3-(((1H-indol-3-yl)methyl)amino)propyl)-5-phenyl-1H-pyrazole-3-carboxamide] | 1.64 |
| O=C(NCCCNCc1cnoc1)c1cc(-c2ccccc2)[nH]n1 [Compound 35, N-(3-((isoxazol-4-ylmethyl)amino)propyl)-5-phenyl-1H-pyrazole-3-carboxamide] | 3.59 |
| Cc1ncc(CN(CCCNC(=O)c2cc(-c3ccccc3)on2)Cc2cnc(C)o2)o1 [Compound 7, N-(3-(bis((2-methyloxazol-5-yl)methyl)amino)propyl)-5-phenylisoxazole-3-carboxamide] | 0.83 |
| O=C(NCCCNCc1cccnc1)c1cc(-c2ccccc2)on1 [Compound 3, 5-phenyl-N-(3-((pyridin-3-ylmethyl)amino)propyl)isoxazole-3-carboxamide] | 0.7 |
| O=C(NCCCNCc1ccc(O)c(O)c1)c1cc(-c2ccccc2)on1 [Compound 8, N-(3-((3,4-dihydroxybenzyl)amino)propyl)-5-phenylisoxazole-3-carboxamide] | 0.84 |
| O=C(NCCCNCc1c[nH]c2ncccc12)c1cc(-c2ccccc2)[nH]n1 [Compound 30, N-(3-(((1H-pyrrolo[2,3-b]pyridin-3-yl)methyl)amino)propyl)-5-phenyl-1H-pyrazole-3-carboxamide] | 2.33 |
| O=C(NCCCNCc1cnoc1)c1cc(-c2ccccc2)on1 [Compound 14, N-(3-((isoxazol-4-ylmethyl)amino)propyl)-5-phenylisoxazole-3-carboxamide] | 0.94 |
| O=C(NCCCN(Cc1cnoc1)Cc1cnoc1)c1cc(-c2ccccc2)on1 [Compound 15, N-(3-(bis(isoxazol-4-ylmethyl)amino)propyl)-5-phenylisoxazole-3-carboxamide] | 0.95 |
| O=C(NCCCNCc1ccccc1O)c1cc(-c2ccccc2)on1 [Compound 16, N-(3-((2-hydroxybenzyl)amino)propyl)-5-phenylisoxazole-3-carboxamide] | 0.98 |
| Cc1ncc(CNCCCNC(=O)c2cc(-c3ccccc3)[nH]n2)o1 [Compound 24, N-(3-(((2-methyloxazol-5-yl)methyl)amino)propyl)-5-phenyl-1H-pyrazole-3-carboxamide] | 1.5 |
| Cc1cc(CN(CCCNC(=O)c2cc(-c3ccccc3)[nH]n2)Cc2cc(C)no2)on1 [Compound 32, N-(3-(bis((3-methylisoxazol-5-yl)methyl)amino)propyl)-5-phenyl-1H-pyrazole-3-carboxamide] | 3.06 |

| SMILES | fold induction at 10 µM |
| --- | --- |
| Cc1cc(CNCCCNC(=O)c2cc(-c3ccccc3)on2)on1 [Compound 11, N-(3-(((3-methylisoxazol-5-yl)methyl)amino)propyl)-5-phenylisoxazole-3-carboxamide] | 0.9 |
| O=C(NCCCNCc1ccccn1)c1cc(-c2ccccc2)[nH]n1 [Compound 23, 5-phenyl-N-(3-((pyridin-2-ylmethyl)amino)propyl)-1H-pyrazole-3-carboxamide] | 1.44 |
| O=C(NCCCNCc1ccc(O)cc1O)c1cc(-c2ccccc2)[nH]n1 [Compound 33, N-(3-((2,4-dihydroxybenzyl)amino)propyl)-5-phenyl-1H-pyrazole-3-carboxamide] | 3.4 |
| COc1cncc(CNCCCNC(=O)c2cc(-c3ccccc3)on2)c1 [Compound 9, N-(3-(((5-methoxypyridin-3-yl)methyl)amino)propyl)-5-phenylisoxazole-3-carboxamide] | 0.89 |
| CC(=O)n1cc(CNCCCNC(=O)c2cc(-c3ccccc3)[nH]n2)c2ccccc21 [Compound 34, N-(3-(((1-acetyl-1H-indol-3-yl)methyl)amino)propyl)-5-phenyl-1H-pyrazole-3-carboxamide] | 3.58 |
| O=C(NCCCNCc1ccc(O)cc1O)c1cc(-c2ccccc2)on1 [Compound 12, N-(3-((2,4-dihydroxybenzyl)amino)propyl)-5-phenylisoxazole-3-carboxamide] | 0.91 |
| O=C(NCCCNc1nccc(Cl)n1)c1cc(-c2ccccc2)[nH]n1 [Compound 38, N-(3-((4-chloropyrimidin-2-yl)amino)propyl)-5-phenyl-1H-pyrazole-3-carboxamide] | 7.36 |
| [N-]=[N+]=Nc1nccc(NCCCNC(=O)c2cc(-c3ccccc3)on2)n1 [Compound 17, N-(3-((2-azidopyrimidin-4-yl)amino)propyl)-5-phenylisoxazole-3-carboxamide] | 1.07 |
| O=C(NCCCNCc1ccccn1)c1cc(-c2ccccc2)on1 [Compound 5, 5-phenyl-N-(3-((pyridin-2-ylmethyl)amino)propyl)isoxazole-3-carboxamide] | 0.71 |
| O=C(NCCCNCc1cccnc1)c1cc(-c2ccccc2)[nH]n1 [Compound 22, 5-phenyl-N-(3-((pyridin-3-ylmethyl)amino)propyl)-1H-pyrazole-3-carboxamide] | 1.16 |
| COc1cncc(CNCCCNC(=O)c2cc(-c3ccccc3)[nH]n2)c1 [Compound 28, N-(3-(((5-methoxypyridin-3-yl)methyl)amino)propyl)-5-phenyl-1H-pyrazole-3-carboxamide] | 1.8 |
| Cc1cc(CNCCCNC(=O)c2cc(-c3ccccc3)[nH]n2)on1 [Compound 31, N-(3-(((3-methylisoxazol-5-yl)methyl)amino)propyl)-5-phenyl-1H-pyrazole-3-carboxamide] | 2.52 |
| Cc1ncc(CNCCCNC(=O)c2cc(-c3ccccc3)on2)o1 [Compound 4, N-(3-(((2-methyloxazol-5-yl)methyl)amino)propyl)-5-phenylisoxazole-3-carboxamide] | 0.71 |
| N#Cc1ccc(NCCCNC(=O)c2cc(-c3ccccc3)on2)nc1 [Compound 1, N-(3-((5-cyanopyridin-2-yl)amino)propyl)-5-phenylisoxazole-3-carboxamide] | 0.63 |
| O=C(NCCCN(Cc1cnoc1)Cc1cnoc1)c1cc(-c2ccccc2)[nH]n1 [Compound 36, N-(3-(bis(isoxazol-4-ylmethyl)amino)propyl)-5-phenyl-1H-pyrazole-3-carboxamide] | 5.77 |
| O=C(NCCCNCc1c[nH]c2ccccc12)c1cc(-c2ccccc2)on1 [Compound 2, N-(3-(((1H-indol-3-yl)methyl)amino)propyl)-5-phenylisoxazole-3-carboxamide] | 0.68 |
| Cc1ncc(CN(CCCNC(=O)c2cc(-c3ccccc3)[nH]n2)Cc2cnc(C)o2)o1 [Compound 25, N-(3-(bis((2-methyloxazol-5-yl)methyl)amino)propyl)-5-phenyl-1H-pyrazole-3-carboxamide] | 1.54 |

same assay, conditions: Homo sapiens, SW-620; inducement of E-cadherin expression in SW620 cells

| SMILES | EC50 [µM] |
| --- | --- |
| [N-]=[N+]=Nc1ccnc(NCCCNC(=O)c2cc(-c3ccccc3)[nH]n2)n1 [Compound 39, N-(3-((4-azidopyrimidin-2-yl)amino)propyl)-5-phenyl-1H-pyrazole-3-carboxamide] | 5.32 |
| [N-]=[N+]=Nc1nccc(NCCCNC(=O)c2cc(-c3ccccc3)[nH]n2)n1 [Compound 37, N-(3-((2-azidopyrimidin-4-yl)amino)propyl)-5-phenyl-1H-pyrazole-3-carboxamide] | 15 |
| O=C(NCCCNc1nccc(Cl)n1)c1cc(-c2ccccc2)[nH]n1 [Compound 38, N-(3-((4-chloropyrimidin-2-yl)amino)propyl)-5-phenyl-1H-pyrazole-3-carboxamide] | 22.9 |
| O=C(NCCCN(Cc1cnoc1)Cc1cnoc1)c1cc(-c2ccccc2)[nH]n1 [Compound 36, N-(3-(bis(isoxazol-4-ylmethyl)amino)propyl)-5-phenyl-1H-pyrazole-3-carboxamide] | 12 |

Source: patent US9505729B2, “Isoxazole analogs as mediators of transcriptional induction of E-cadherin” (Vanderbilt University, priority 2014, dated 2016)
